Laboratory results published in patent publication US20080201790A1, “Method and product for regulating cell responsiveness to external signals” (priority 1993, published 2008).

Key:
[1] = system: MEKK1; test: Cellular localization of MEKK1 in Swiss 3T3 cells, antibody staining; format: cell-based; conditions: serum starved Swiss 3T3 cells, 10 minutes
Text: (§1) Cells were fixed and stained with an antibody specifically recognizing either MEKK1 or MEKK2. Secondary FITC-conjugated anti-rabbit IgG antibody was used for staining.

[2] = system: 98 kD PC12 cell MEKK; test: MEKK immunoprecipitate kinase assay from PC12 cells with kinase inactive MEK-1; format: cell-based; conditions: serum starved PC12 cells
Protocol: Reactions were stopped by the addition of 2×SDS sample buffer (20 μl). The samples were boiled for 3 minutes and subjected to SDS-PAGE and autoradiography. Raf-B was immunoprecipitated from the same untreated and treated PC12 cell lysates as above with an antiserum to a COOH-terminal peptide of Raf-B (Santa Cruz Biotechnology, Inc.) and assayed similarly. Raf-1 was immunoprecipitated with an antiserum to the 12 COOH-terminal amino acids of Raf-1 (Santa Cruz Biotechnology, Inc.).
Data represent the relative magnitude of the response for each timepoint as quantitated by phosphorimager analysis of radioactive gels from a typical experiment.
Expression of N^17Ras was induced in PC12 clones stably transfected with the N^17Ras gene by the addition of dexamethasone to the starvation media. […] PC12 cell clones stably transfected with the N^17Ras gene are less responsive to EGF-mediated activation of MEKK activity than are wild type PC12 cells. […] MEKK activity in immunoprecipitates or column fractions was dissociable from that of EGF-stimulated c-Raf-1 and Raf-B activities.
To determine whether the growth factor-mediated activation of 98 kD PC12 cell MEKK was inhibited by PKA, forskolin was used to elevate intracellular cAMP and activate PKA. […] Raf-B activity was also assayed from the same cell lysates to test whether its regulation differed from that of MEKK. Raf-B was immunoprecipitated from the same cell lysates as described above and assayed for its ability to phosphorylate MEK-1 as described above.

[3] = system: MEKK2; test: Cellular localization of MEKK2 in Swiss 3T3 cells, antibody staining; format: cell-based; conditions: serum starved Swiss 3T3 cells, 10 minutes
Text: as §1

[4] = system: Raf; test: Raf activation assay (immunoprecipitated Raf, kinase-inactive MEK-1) in Rat 1a cells; format: cell-based
Protocol: (§2) Differential regulation of MEK in Rat 1a and NIH3T3 cells expressing gip2, v-src, v-ras, or v-raf led the present inventor to investigate the protein kinases that are putative regulators of MEK-1. Recently, it was shown that Raf-1 can phosphorylate and activate MEK. […] Cells were serum starved and challenged in the presence or absence of the appropriate growth factors, as described above. […] Cells were lysed by scraping in ice cold RIPA buffer (50 mM Tris, pH 7.2, 150 mM NaCl, 0.1% SDS, 0.5% sodium deoxycholate, 1.0% Triton X 100, 10 mM sodium pyrophosphate, 25 mM sodium glycerophosphate, 2 mM sodium vanadate, 2.1 μg/ml aprotinin) and were microfuged for 10 min to remove nuclei. The supernatants were normalized for protein content and precleared with protein A Sepharose prior to immunoprecipitation with rabbit antiserum to the C terminus of Raf-1 and protein A Sepharose for 2-3 h at 4° C. The beads were washed twice with ice cold RIPA and twice with PAN (10 mM Pipes, pH 7.0, 100 mM NaCl, 21 μg/ml aprotinin). A portion of the immunoprecipitate was diluted with SDS sample buffer and used for immunoblot analysis. […] Wild type recombinant MEK-1 was autophosphorylated in parallel as a marker. Reactions were terminated by the addition of 12.5 μl 5×SDS sample buffer, boiled for 5 minutes and subjected to SDS-PAGE and autoradiography.

[5] = system: Raf; test: Raf activation assay (immunoprecipitated Raf, kinase-inactive MEK-1) in NIH3T3 cells; format: cell-based
Protocol: as §2

[6] = system: Raf-B; test: Raf-B immunoprecipitate kinase assay from PC12 cells with kinase inactive MEK-1; format: cell-based; conditions: EGF 30 ng/ml, serum starved PC12 cells
[7] = target: GST-Rac (Homo sapiens, UniProt P63000); test: Binding of MEKK4 to GST fusion protein on glutathione-Sepharose, Rac
Protocol: (§3) GST fusion proteins encoding Cdc42 or Rac loaded with either GTPγs or GDP were incubated with MEKK4 using previously described methods (Russell, M. et al. (1995) J. Biol. Chem. 270:11757-11760). The source of MEKK4 was either from a Cos cell transient transfection or a recombinant MEKK4 protein expressed in E. coli. The recombinant MEKK4 protein was truncated to express residues from 1261-1597 of the full length protein. A GST fusion protein of Ha-Ras was used as a control. The MEKK4 protein was incubated for 1 hr at 4° C. with either GST-Cdc42, GST-Rac or GST-Ras bound to glutathione-Sepharose beads. Each GST fusion protein had GTPγs or GDP bound to the Cdc42, Rac or Ras moiety of the fusion protein. Following the incubation the beads were washed extensively and the bound proteins removed in SDS-Laemmli buffer and resolved by SDS-PAGE using 10% acrylamide gels. The proteins were transferred to nitrocellulose and immunoblotted using a MEKK4 specific antibody recognizing the extreme COOH-terminus of MEKK4. […] The GDP bound forms of GST-Cdc42 and GST-Rac bound less than 10% of the MEKK4 bound in the presence of GTPγs.

[8] = target: GST-Cdc42 (Homo sapiens, UniProt P60953); test: Binding of MEKK4 to GST fusion protein on glutathione-Sepharose, Cdc42
Protocol: as §3

[9] = target: GST-Ras (Homo sapiens, UniProt P01112); test: Binding of MEKK4 to GST fusion protein on glutathione-Sepharose, Ras; conditions: GTPγS or GDP bound form
Protocol: as §3

[10] = system: MAPK; test: Thrombin stimulation of MAPK; format: cell-based
[11] = system: MEK; test: MEK activity in cell lysates from thrombin stimulated Rat 1a cells; format: cell-based
Text: This Example Describes the Determination of Whether a Similar or Distinct MEK Activity is Involved in Activation of MAPK Though Gi Protein Coupled Receptors by Measuring MEK Activity in Cell Lysates from Thrombin Stimulated Rat 1a Cells

[12] = system: Swiss 3T3 cells and REF52 cells; test: Beauvericin-induced apoptosis, anti-tubulin and propidium iodide staining; format: cell-based; conditions: 50 μM, 6 hours at 37° C.
Protocol: A first group of transfected Swiss 3T3 cells and REF52 cells were treated with 50 μM beauvericin for 6 hours at 37° C. Beauvericin is a compound known to induce apoptosis in mammalian cells. A second group of cells were treated with a control buffer lacking beauvericin. The treated cells were then fixed in paraformaldehyde and permeabilized with saponin using protocols standard in the art. The permeabilized cells were then labelled by incubating the cells with a fluorescein-labelled anti-tubulin antibody (1:500; obtained from GIBCO, Gaithersburg, Md.) to detect cytoplasmic shrinkage or 10 μM propidium iodide (obtained from Sigma, St. Louis, Mo.) to stain DNA to detect nuclear condensation. The labelled cells were then viewed by differential fluorescent imaging using a Nikon Diaphot fluorescent microscope.

[13] = system: GST-Ras^V12; test: Binding of COS cell-expressed MEKK1 proteins to GST-Ras^V12 agarose; conditions: COS cell lysates, immunoblot
Text: COS cells were transiently transfected by the DEAE-dextran protocol as generally described in Example 3. Cos cells were transfected with: (1) p-MEKK1 containing a nucleic acid molecule encoding MEKK1 as described in Lange-Carter et al. (Science 260:315-319, […]); (2) p-MEKKNH2 containing a nucleic acid molecule that encodes a 858 base pair Pvull(682)-Ncol(1541) restriction digest fragment of the amino terminus of MEKK1 ligated into pCMV5; (3) p-MEKKCOOH containing a nucleic acid molecule that encodes a 1435 base pair Ncol(1541)-Sspl(2976) restriction digest fragment that includes the entire kinase domain of MEKK1 ligated into pCMV5; (4) pCMV5 without insert; or (5) p-C4Raf containing a nucleic acid molecule that encodes the amino terminus of Raf-1 ligated into pCMV5. COS cells expressing the various MEKK1 proteins were […] COS cells expressing the various MEKK1 proteins were lysed in EB (1% Triton X-100, 10 mM Tris HCl [pH 7.4], 5 mM EDTA, 50 mM NaCl, 50 mM NaF, 0.1% bovine serum albumin, 0.2 U/ml aprotinin, 1 mM phenylmethylsulfonyl fluoride and 2 mM Na3 VO4). The lysates were separated into two equal parts for separate binding reactions. Half of the lysate was incubated with GST agarose (1.5 μg) while half of the lysate was incubated with GST-Ras^V12 agarose (1.5 μg) (purchased from UBI) for 1 hr at 4° C. […]

Sequence of GST-Cdc42 (P60953 whole entry, the tested form may be a part): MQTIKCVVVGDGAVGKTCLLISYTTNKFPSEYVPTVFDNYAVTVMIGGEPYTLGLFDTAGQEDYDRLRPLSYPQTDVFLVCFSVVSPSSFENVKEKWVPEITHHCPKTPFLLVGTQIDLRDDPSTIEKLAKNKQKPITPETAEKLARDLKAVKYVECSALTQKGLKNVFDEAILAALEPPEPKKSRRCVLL
Sequence of GST-Ras (P01112 whole entry, the tested form may be a part): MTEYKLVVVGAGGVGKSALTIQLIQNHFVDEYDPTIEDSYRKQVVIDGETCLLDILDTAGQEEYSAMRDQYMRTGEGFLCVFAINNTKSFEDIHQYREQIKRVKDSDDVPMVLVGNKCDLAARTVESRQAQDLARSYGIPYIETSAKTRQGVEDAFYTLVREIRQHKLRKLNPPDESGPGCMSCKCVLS

EGF: human EGF, epidermal growth factor
cellular localization of MEKK1 [1]: induced a dramatic translocation of MEKK1 to the plasma membrane
persistence of MEKK activation ([2]; EGF 30 ng/ml): at least 30 minutes
MEKK activity after stimulation (in words) ([2]; 5 minutes): increased MEKK activity
cellular localization of MEKK2 [3]: did not effect the cellular localization of MEKK2
Raf catalyzed phosphorylation of MEK-1 ([4]; Gip2 expressing Rat 1a cells): 1.8 fold
Raf phosphorylation of recombinant MEK-1 over basal ([4]; Rat 1a cells): approximately 2.6 fold
Raf catalyzed phosphorylation of MEK-1 ([4]; v-Src expressing Rat 1a cells): 1.4 fold
activation of Raf [5]: approximately 2.7 fold
time of peak Raf-B activity [6]: 3 to 5 min

MEKK4: MEK kinase 4 protein, SEQ ID No. 12 / 14
binding to Rac in the GTPγS form ([7]; 1 hr at 4° C., immunoblot): specifically bound
MEKK4 bound by GDP form relative to GTPγs form ([7]; GST-Rac): less than 10%
binding to Cdc42 in the GTPγS form ([8]; 1 hr at 4° C., immunoblot): specifically bound
MEKK4 bound by GDP form relative to GTPγs form ([8]; GST-Cdc42): less than 10%
binding to Ras [9]: did not bind significantly

thrombin
time of maximal stimulation of MAPK [10]: 3 min
magnitude of MEK activity relative to EGF stimulation [11]: two to three-fold less
stimulation of MEK over basal [11]: two to three-fold over basal
activation of Raf (in words) ([4]; Rat 1a cells): did not measurably activate Raf
activation of Raf (in words) [5]: does not

beauvericin
morphology characteristic of apoptosis [12]: cytoplasmic shrinkage (monitored by the anti-tubulin antibodies) and nuclear condensation

C4Raf: amino terminus of Raf-1 encoded by p-C4Raf [reference compound]
binding to GST-Ras^V12 (in words) [13]: bound to GST-Ras^V12(GTPγS) agarose
